Laboratory results as given in ChEMBL document CHEMBL1131864, “Effects of sesquiterpenes and triterpenes from the rhizome of Alisma orientale on nitric oxide production in lipopolysaccharide-activated macrophages: absolute stereostructures of alismaketones-B 23-acetate and -C 23-acetate” (Bioorg Med Chem Lett, 1999).

Columns and labels:
Format in all cases: functional
[1] = organism: Mus musculus; assay: Concentration required for inhibition of nitric oxide production in LPS-activated mouse macrophages
[2] = organism: Mus musculus; assay: Inhibition of nitric oxide production in LPS-activated mouse macrophages at a concentration of 30 uM
[3] = organism: Mus musculus; assay: Inhibition of nitric oxide production in LPS-activated mouse macrophages at a concentration of 1 uM
[4] = organism: Mus musculus; assay: Inhibition of nitric oxide production in LPS-activated mouse macrophages at a concentration of 100 uM
[5] = organism: Mus musculus; assay: Inhibition of nitric oxide production in LPS-activated mouse macrophages at a concentration of 10 uM
[6] = organism: Mus musculus; assay: Inhibition of nitric oxide production in LPS-activated mouse macrophages at a concentration of 3 uM

Row | SMILES | IC50 [1] [µM] | inhibition at 30 µM [2] [%] | inhibition at 1 µM [3] [%] | inhibition at 100 µM [4] [%] | inhibition at 10 µM [5] [%] | inhibition at 3 µM [6] [%]
1 | C[C@H](C[C@H](O)[C@H](O)C(C)(C)O)C1=C2C[C@H](O)C3[C@@]4(C)CCC(=O)C(C)(C)C4CC[C@]3(C)[C@@]2(C)CC1 (stereo not given in full) | > 10 | 113 | 5.8 | 111 | 30 | 21.4
2 | COC(=O)C(C)(C)C1CC[C@@]2(C)C3[C@H](CC4=C([C@H](C)C[C@H](OC(C)=O)[C@H]5OC5(C)C)CC[C@@]42C)OC(=O)C[C@@]13C (stereo not given in full) | 10 | 84.2 | -2.6 | 110 | 49.2 | 17.2
3 | CC(=O)O[C@@H](C[C@@H](C)C1=C2[C@H](O)[C@H](O)C3[C@@]4(C)CCC(=O)C(C)(C)C4CC[C@]3(C)[C@@]2(C)CC1)[C@H]1OC1(C)C (stereo not given in full) | > 10 | 117 | 5.9 | 116 | 32.3 | 4
4 | CC(=O)O[C@H]1C[C@@H](C)C2=C3C[C@H](O)C4[C@@]5(C)CCC(=O)C(C)(C)C5CC[C@]4(C)[C@@]3(C)C[C@@H]2O[C@H]1C(C)(C)O (stereo not given in full) | 36 | 42.9 | -4.5 | 90.8 | 13.5 | 7.5
5 | C=C(C)[C@H](O)[C@@H](O)C[C@@H](C)C1=C2C[C@H](O)C3[C@@]4(C)CCC(=O)C(C)(C)C4CC[C@]3(C)[C@@]2(C)CC1 (stereo not given in full) | > 10 | 104 | 8.8 | 106 | 29.7 | 21.4
6 | CC(C)C1=CC2C(CC[C@]2(C)O)/C(=C/S(=O)(=O)O)CC1 (stereo not given in full) | > 100 | 21.5 | 8.4 | 27.1 | 11 | 14.3
7 | C=C1CCC(C(C)C)=CC2C1CC[C@]2(C)O (stereo not given in full) | 23 | 57.5 | 3.4 | 97.4 | 27 | 17.6
8 | C[C@H](CC(=O)CC(C)(C)O)C1=C2CCC3[C@@]4(C)CCC(=O)C(C)(C)C4CC[C@]3(C)[C@@]2(C)CC1=O (stereo not given in full) | 17 | 71.3 | -5.1 | 97.2 | 26.7 | 17.2
9 | C=C1CC[C@@]2(C(C)C)O[C@H]2C2C1CC[C@]2(C)O (stereo not given in full) | 53 | 29.2 | 0.9 | 74.9 | 14.1 | 5
10 | CC(=O)O[C@@H](C[C@@H](C)C1=C2C[C@H](O)C3[C@@]4(C)CCC(=O)C(C)(C)C4CC[C@]3(C)[C@@]2(C)CC1)[C@H](O)C(C)(C)O (stereo not given in full) | 16 | 81 | 9.2 | 104 | 32.1 | 10
11 | CC(=O)O[C@@H](C[C@@H](C)C1=C2C=CC3[C@@]4(C)CCC(=O)C(C)(C)C4CC[C@]3(C)[C@@]2(C)CC1=O)[C@H]1OC1(C)C (stereo not given in full) | 8.4 | 86.5 | 17.8 | 104 | 54.8 | 27.9
12 | CC(=O)O[C@@H](C[C@@H](C)C(=O)CC[C@@]1(C)C(=O)C=CC2[C@@]3(C)CCC(=O)C(C)(C)C3CC[C@@]21C)[C@H]1OC1(C)C (stereo not given in full) | 23 | 61 | 2.9 | 114 | 22.7 | 10.2
13 | CC(=O)O[C@@H](C[C@@H](C)C1=C2C[C@H](O)C3[C@@]4(C)CCC(=O)C(C)(C)C4CC[C@]3(C)[C@@]2(C)CC1)[C@H]1OC1(C)C (stereo not given in full) | > 10 | 106 | 0 | 105 | 29.7 | 13.4
14 | CC(C)C1=CC2C(CC[C@]2(C)O)[C@@](O)(CO)CC1 (stereo not given in full) | 68 | 21.2 | -4.3 | 64.1 | 4.8 | -3.1
15 | C[C@H](C[C@H](O)[C@H]1OC1(C)C)C1=C2C[C@H](O)C3[C@@]4(C)CCC(=O)C(C)(C)C4CC[C@]3(C)[C@@]2(C)CC1 (stereo not given in full) | > 10 | 109 | 13.2 | 108 | 36.3 | 21.3
16 | CC(=O)O[C@H]([C@@H](O)C[C@@H](C)C1=C2C[C@H](O)C3[C@@]4(C)CCC(=O)C(C)(C)C4CC[C@]3(C)[C@@]2(C)CC1)C(C)(C)O (stereo not given in full) | > 10 | 71 | -2.9 | 112 | 13.4 | 6.4
17 | O=C(/C=C/c1ccc(O)c(O)c1)OCCc1ccccc1 [CAFFEIC ACID PHENETHYL ESTER] | 4 | 104 | -1.9 | 104 | 97.5 | 25.5
18 | C=C1/C=C/[C@H](C(C)C)CC/C(C)=C/CC1 [GERMACRENE D] | 58 | 29 | 7.5 | 68.5 | 16.7 | 1.6
19 | N=C(N)NCCSSCCNC(=N)N [GUANIDINOETHYLDISULFIDE] | 1.4 | 105 | 39.1 | 105 | 102 | 76.3
20 | CNC(=N)NCCC[C@H](N)C(=O)O [TILARGININE] | 28 | 52.3 | 4.4 | 79.2 | 17.7 | 2
